Laboratory results taken from ChEMBL document CHEMBL5653631, “A Potent and Selective ULK1 Inhibitor Suppresses Autophagy and Sensitizes Cancer Cells to Nutrient Stress” (iScience, 2018).
Each block holds one compound with its values, some of them ahead of it.

What was measured:
[1] = target: Serine/threonine-protein kinase MRCK beta (Homo sapiens) (UniProt Q9Y5S2); assay: Inhibition of human recombinant MRCKb at 500 nM in presence of ATP by radiometric assay relative to control
[2] = target: T1, Serine/threonine-protein kinase ULK2 (Homo sapiens) (UniProt Q8IYT8); assay: Inhibition of human recombinant ULK2 at 500 nM related to control ULK1
T1 sequence (whole entry): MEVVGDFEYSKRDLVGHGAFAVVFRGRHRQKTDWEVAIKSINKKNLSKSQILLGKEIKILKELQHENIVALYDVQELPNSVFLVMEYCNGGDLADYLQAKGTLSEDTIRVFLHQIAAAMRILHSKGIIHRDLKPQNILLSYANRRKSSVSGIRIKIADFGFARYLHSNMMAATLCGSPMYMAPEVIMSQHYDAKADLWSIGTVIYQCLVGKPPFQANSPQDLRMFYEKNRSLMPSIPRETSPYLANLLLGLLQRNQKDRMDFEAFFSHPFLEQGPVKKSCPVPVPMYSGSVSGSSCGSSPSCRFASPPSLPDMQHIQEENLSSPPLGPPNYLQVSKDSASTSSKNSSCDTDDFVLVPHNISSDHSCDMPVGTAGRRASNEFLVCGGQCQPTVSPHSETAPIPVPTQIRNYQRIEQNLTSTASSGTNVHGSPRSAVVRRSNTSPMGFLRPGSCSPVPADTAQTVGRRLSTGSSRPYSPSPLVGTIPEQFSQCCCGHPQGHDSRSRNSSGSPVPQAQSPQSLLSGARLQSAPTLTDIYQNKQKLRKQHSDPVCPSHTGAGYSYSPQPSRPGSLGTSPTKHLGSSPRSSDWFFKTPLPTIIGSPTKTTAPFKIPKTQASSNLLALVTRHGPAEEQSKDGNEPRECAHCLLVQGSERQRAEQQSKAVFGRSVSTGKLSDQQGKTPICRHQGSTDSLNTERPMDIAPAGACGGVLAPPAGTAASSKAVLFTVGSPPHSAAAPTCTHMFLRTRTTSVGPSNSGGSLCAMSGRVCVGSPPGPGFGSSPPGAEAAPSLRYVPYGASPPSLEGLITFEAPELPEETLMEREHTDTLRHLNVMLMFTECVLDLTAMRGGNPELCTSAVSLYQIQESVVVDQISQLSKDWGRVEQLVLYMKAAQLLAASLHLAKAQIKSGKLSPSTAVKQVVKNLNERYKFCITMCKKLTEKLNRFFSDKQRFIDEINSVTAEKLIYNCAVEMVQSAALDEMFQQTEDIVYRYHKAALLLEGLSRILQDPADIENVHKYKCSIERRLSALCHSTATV

[3] = target: Wee1-like protein kinase 2 (Homo sapiens) (UniProt P0C1S8); assay: Inhibition of human recombinant Wee1B at 500 nM in presence of ATP by radiometric assay relative to control
Wee1-like protein kinase 2 (Homo sapiens), sequence (P0C1S8 whole entry, looked up): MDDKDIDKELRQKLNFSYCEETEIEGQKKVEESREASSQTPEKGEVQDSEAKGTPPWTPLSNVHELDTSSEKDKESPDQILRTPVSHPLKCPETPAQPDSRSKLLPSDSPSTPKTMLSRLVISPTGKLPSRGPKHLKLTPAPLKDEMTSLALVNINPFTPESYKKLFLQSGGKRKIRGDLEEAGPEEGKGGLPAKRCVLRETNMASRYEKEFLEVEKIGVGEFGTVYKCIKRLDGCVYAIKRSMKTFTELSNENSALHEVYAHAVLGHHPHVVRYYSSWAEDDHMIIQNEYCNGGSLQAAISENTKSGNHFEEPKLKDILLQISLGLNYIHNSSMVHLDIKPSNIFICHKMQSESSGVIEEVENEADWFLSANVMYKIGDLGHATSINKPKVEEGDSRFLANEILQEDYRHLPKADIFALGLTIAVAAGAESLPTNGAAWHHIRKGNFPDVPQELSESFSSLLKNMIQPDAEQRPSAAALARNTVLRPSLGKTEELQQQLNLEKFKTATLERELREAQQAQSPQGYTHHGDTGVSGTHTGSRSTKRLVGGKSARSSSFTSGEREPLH

[4] = target: Tyrosine-protein kinase HCK (Homo sapiens) (UniProt P08631); assay: Inhibition of human recombinant HCK at 500 nM in presence of ATP by radiometric assay relative to control
Tyrosine-protein kinase HCK (Homo sapiens), sequence (P08631 2-526 limits assumed): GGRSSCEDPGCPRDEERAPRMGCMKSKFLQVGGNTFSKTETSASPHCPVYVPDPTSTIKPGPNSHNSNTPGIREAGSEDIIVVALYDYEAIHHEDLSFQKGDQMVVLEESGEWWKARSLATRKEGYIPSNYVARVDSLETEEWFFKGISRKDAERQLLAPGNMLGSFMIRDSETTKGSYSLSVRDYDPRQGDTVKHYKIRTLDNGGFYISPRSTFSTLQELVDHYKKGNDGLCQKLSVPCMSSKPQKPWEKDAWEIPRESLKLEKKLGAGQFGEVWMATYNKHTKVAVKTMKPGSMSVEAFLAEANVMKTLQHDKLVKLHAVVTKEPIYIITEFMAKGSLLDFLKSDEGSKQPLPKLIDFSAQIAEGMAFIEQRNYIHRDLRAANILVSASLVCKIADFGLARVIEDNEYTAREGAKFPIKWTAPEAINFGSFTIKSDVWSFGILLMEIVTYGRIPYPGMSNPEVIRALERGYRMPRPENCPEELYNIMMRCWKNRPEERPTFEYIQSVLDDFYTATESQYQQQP

[5] = target: Death-associated protein kinase 1 (Homo sapiens) (UniProt P53355); assay: Inhibition of human recombinant DAPK1 at 15 nM in presence of ATP by radiometric assay relative to control
Death-associated protein kinase 1 (Homo sapiens), sequence (P53355 whole entry, looked up): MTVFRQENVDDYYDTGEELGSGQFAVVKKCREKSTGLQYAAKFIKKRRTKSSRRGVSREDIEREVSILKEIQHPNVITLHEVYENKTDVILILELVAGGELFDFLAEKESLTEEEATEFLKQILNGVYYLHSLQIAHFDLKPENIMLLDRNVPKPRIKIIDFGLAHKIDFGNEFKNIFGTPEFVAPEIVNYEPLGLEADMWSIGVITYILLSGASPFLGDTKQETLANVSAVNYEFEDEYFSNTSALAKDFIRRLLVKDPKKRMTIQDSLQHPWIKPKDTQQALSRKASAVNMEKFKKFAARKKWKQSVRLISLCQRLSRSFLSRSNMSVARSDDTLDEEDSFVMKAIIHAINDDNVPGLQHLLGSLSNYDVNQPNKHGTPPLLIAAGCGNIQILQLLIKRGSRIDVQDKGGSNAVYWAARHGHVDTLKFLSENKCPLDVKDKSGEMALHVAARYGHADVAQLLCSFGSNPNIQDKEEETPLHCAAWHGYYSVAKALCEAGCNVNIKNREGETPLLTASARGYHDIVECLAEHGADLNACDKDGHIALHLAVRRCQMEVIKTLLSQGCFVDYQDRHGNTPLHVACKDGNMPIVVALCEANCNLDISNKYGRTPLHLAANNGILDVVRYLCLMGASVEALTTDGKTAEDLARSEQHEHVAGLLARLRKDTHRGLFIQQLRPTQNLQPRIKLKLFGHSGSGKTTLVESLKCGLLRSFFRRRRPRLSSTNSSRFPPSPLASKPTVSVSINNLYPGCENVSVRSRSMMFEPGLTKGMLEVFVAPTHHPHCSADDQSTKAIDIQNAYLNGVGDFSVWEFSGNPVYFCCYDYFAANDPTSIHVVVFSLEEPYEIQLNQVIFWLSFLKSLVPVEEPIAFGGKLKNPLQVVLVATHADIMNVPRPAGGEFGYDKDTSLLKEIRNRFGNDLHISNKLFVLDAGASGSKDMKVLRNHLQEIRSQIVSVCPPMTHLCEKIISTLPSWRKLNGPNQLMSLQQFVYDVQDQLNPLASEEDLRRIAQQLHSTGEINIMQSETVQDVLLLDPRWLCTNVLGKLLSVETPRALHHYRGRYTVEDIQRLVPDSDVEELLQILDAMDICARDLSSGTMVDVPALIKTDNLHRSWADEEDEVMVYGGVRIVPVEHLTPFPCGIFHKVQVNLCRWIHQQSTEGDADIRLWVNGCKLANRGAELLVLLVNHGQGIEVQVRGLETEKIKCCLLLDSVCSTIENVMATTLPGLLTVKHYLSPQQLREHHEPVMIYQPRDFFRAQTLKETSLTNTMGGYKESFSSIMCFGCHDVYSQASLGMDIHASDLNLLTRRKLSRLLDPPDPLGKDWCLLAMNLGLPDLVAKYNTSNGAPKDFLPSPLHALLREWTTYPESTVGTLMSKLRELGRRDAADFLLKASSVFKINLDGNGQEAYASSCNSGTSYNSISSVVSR

[6] = target: Protein-tyrosine kinase 6 (Homo sapiens) (UniProt Q13882); assay: Inhibition of human recombinant BRK at 15 nM related to control ULK1
Protein-tyrosine kinase 6 (Homo sapiens), sequence (Q13882 whole entry, looked up): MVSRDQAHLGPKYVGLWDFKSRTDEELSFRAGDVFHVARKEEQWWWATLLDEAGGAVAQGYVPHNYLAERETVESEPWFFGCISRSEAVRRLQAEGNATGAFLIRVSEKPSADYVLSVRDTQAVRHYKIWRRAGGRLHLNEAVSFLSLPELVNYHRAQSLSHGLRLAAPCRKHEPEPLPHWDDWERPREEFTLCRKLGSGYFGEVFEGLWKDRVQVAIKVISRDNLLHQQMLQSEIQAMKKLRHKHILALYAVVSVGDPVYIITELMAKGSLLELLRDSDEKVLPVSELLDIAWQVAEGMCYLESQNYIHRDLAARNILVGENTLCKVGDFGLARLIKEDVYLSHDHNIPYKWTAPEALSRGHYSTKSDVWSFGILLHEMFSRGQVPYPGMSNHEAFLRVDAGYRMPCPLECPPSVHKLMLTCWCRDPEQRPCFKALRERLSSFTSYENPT

[7] = target: T2, Mitogen-activated protein kinase kinase kinase 5 (Homo sapiens) (UniProt Q99683); assay: Inhibition of human recombinant MAP3K5 at 40 nM in presence of ATP by radiometric assay relative to control
T2 sequence (whole entry): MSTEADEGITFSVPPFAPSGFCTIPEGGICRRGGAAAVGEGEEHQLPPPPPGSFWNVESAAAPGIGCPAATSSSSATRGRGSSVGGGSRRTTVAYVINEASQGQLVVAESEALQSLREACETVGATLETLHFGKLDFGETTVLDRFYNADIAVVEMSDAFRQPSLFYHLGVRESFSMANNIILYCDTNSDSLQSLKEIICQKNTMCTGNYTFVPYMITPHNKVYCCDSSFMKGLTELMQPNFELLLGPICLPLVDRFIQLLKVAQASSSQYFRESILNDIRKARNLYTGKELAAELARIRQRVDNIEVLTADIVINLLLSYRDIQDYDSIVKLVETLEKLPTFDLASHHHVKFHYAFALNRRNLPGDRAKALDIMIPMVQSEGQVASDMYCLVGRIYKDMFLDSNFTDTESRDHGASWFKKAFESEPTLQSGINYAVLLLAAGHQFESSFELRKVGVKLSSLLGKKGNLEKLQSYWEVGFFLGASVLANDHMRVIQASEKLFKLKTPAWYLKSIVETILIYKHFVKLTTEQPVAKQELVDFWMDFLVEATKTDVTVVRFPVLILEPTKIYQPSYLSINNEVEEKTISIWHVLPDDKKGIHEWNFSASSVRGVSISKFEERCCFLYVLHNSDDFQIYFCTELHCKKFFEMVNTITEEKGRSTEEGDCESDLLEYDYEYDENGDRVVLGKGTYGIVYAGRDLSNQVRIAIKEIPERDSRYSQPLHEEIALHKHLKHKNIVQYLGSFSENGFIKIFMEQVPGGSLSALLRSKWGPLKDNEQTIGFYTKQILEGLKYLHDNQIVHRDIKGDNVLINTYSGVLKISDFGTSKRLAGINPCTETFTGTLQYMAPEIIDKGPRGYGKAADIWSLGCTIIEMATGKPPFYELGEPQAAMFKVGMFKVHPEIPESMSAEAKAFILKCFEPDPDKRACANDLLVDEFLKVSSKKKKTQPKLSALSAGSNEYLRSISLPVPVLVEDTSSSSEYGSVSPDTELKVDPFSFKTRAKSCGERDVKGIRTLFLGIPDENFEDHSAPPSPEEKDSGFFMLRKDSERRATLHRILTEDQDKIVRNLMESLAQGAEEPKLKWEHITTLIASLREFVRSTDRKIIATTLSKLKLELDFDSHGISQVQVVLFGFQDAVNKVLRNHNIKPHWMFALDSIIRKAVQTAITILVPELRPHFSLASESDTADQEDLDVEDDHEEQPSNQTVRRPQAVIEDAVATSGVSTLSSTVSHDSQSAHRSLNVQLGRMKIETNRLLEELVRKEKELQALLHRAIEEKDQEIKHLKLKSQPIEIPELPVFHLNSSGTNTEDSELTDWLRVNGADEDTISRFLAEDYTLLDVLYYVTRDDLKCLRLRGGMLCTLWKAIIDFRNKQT

[8] = target: Insulin-like growth factor 1 receptor (Homo sapiens) (UniProt P08069); assay: Inhibition of human recombinant IGF1R at 40 nM related to control ULK1
Insulin-like growth factor 1 receptor (Homo sapiens), sequence (P08069 31-736 limits assumed): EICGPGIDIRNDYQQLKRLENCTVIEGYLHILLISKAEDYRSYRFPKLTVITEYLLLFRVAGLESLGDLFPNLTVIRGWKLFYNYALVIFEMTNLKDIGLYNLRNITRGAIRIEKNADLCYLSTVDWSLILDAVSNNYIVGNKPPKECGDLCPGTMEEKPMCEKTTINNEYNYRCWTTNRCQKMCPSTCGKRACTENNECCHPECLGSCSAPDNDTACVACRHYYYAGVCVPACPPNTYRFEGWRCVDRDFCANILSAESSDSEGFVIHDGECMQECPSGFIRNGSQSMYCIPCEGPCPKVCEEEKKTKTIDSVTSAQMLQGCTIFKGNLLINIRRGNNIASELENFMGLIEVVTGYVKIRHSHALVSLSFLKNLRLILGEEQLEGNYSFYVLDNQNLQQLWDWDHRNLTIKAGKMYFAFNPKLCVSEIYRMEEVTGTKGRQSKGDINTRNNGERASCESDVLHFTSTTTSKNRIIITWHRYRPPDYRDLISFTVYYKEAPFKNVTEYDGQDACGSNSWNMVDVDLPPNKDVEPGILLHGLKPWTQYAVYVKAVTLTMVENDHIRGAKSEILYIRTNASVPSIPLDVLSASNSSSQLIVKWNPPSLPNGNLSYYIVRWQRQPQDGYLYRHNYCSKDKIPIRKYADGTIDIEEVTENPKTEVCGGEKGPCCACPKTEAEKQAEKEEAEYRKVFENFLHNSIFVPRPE
Insulin-like growth factor 1 receptor (Homo sapiens), sequence (P08069 741-1367 limits assumed): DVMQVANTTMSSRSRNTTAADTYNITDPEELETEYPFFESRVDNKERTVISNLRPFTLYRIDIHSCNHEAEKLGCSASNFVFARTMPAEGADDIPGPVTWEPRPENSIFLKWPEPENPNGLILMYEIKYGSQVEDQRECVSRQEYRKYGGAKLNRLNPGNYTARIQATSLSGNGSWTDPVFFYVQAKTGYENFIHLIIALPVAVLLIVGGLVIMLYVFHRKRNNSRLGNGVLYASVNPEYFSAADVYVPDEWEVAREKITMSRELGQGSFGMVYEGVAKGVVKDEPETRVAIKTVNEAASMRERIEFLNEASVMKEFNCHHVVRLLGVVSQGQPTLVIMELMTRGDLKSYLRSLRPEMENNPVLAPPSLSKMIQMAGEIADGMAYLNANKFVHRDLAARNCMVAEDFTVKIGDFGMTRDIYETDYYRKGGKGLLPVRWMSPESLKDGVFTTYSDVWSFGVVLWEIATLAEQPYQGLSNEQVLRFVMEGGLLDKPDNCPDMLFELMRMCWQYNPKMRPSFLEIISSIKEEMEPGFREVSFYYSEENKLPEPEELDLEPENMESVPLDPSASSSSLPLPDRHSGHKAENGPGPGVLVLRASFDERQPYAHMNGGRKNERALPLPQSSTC

inhibition [1]: 0%
fold change (FC) [2]: 0.65
inhibition [3]: 2%
inhibition [4]: 17%
Compound: CNC(=O)c1ccccc1Oc1nc(Nc2cc(OC)c(OC)c(OC)c2)ncc1Br

fold change (FC) [6]: 0.09
Compound: CC(C)[C@H](NC(=O)c1cc(-c2cnn3cc(-c4ccc(OCCN5CCCCC5)cc4)cnc23)cs1)C(F)(F)F
inhibition [5]: 4%

inhibition [7]: 0%
fold change (FC) [8]: 0
Compound: O=C(N[C@@H](C1CC1)C(F)(F)F)c1cc(-c2cnn3cc(-c4ccc(F)cc4)cnc23)cs1
